Test results as given in article PMC6354011 (Scientific Reports, 2019).
“And” between values parts separate entries of the source, which are not always exact repeats. Identical values can stand only once. Like-named read-outs stand apart in the source and are kept apart here.

Columns and labels:
[1] = target: T1, Electric eel acetylcholinesterase (AChE, EC 3.1.1.7) (Electrophorus electricus, UniProt O42275); test: biochemical; settings: mean ± SD, n = 3; read-out: IC50 (µM) AChE
T1 construct: purchased Sigma-Aldrich (USA)
Description: (§1) Ellman’s colorimetric method with minor modification was employed in the determination of AChE and BChE inhibitory activities. Electric eel acetylcholinesterase (AChE, EC 3.1.1.7), equine serum butyrylcholinesterase (BChE, EC 3.1.1.8), 5,5′-Dithiobis(2-nitrobenzoic acid) (DTNB) and sodium phosphate dibasic (Na2HPO4) were purchased from Sigma-Aldrich (USA). S-butyrylthiocholine chloride (BTCC) from Sigma-Aldrich (Switzerland), acetylthiocholine iodide (ATCI) from Sigma-Aldrich (United Kingdom) and sodium phosphate monobasic (NaH2PO4) from Sigma-Aldrich (Germany) were purchased. […] Ethanol was used to replace the sample as a control in this assay.

[2] = target: T2, equine serum butyrylcholinesterase (BChE, EC 3.1.1.8) (Equus caballus, UniProt P81908); test: biochemical; format: biochemical; settings: for BChE % inhibition: single read
T2 construct: equine serum butyrylcholinesterase (BChE, EC 3.1.1.8); purchased Sigma-Aldrich (USA); host or cells: equine serum
Description: as §1

[3] = mean ± SD, n = 3, read-out: IC50 (µM) BChE

T2 sequence (P81908 whole entry): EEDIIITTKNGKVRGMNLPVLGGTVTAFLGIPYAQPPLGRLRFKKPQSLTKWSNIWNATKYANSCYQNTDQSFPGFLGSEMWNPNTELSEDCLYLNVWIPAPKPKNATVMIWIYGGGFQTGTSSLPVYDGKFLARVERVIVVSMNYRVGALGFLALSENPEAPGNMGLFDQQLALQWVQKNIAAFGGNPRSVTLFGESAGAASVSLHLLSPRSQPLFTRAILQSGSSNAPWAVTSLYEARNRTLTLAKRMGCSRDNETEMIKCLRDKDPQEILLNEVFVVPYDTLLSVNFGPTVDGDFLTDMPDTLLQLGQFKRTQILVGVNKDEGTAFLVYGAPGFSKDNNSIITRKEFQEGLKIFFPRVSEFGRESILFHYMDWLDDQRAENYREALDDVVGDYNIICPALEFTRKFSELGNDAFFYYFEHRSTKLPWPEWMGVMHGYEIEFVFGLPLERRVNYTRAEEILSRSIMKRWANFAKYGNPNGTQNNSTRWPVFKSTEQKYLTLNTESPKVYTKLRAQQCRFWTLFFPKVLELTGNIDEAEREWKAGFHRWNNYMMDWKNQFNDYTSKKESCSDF
T1 sequence (O42275 24-633): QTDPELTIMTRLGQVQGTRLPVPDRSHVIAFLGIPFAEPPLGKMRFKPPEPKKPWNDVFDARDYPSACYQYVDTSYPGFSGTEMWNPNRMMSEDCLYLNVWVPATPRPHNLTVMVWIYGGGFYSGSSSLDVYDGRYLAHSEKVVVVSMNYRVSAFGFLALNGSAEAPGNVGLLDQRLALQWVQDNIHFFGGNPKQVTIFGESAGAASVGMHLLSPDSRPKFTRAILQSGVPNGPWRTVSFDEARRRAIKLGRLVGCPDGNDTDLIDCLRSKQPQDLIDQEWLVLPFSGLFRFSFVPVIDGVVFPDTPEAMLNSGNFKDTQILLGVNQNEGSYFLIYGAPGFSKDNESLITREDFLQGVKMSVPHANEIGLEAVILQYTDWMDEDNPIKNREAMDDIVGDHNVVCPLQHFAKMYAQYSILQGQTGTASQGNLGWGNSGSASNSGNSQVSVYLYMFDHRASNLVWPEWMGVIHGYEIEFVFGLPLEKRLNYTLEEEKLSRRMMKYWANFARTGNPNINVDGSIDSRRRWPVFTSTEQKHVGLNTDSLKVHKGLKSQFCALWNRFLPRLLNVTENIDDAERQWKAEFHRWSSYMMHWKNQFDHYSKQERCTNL

SMILES	IC50 [1] [µM]	IC50 ([2]; N = 3, unit not given (µg/mL scale), read-out: BChE IC50, Tukey HSD homogeneous subsets (group mean) (converted)) [µM]	BChE % inhibition ([2]; conc 25 (µg/mL))	BChE % inhibition ([2]; conc 100 (µg/mL))	BChE % inhibition ([2]; conc 150 (µg/mL))	BChE % inhibition ([2]; conc 200 (µg/mL))	BChE % inhibition ([2]; conc 250 (µg/mL))	IC50 [2, 3] [µM]
Cc1cccn2cc(-c3ccc(Cl)cc3)nc12 [Compound 2n, 2-(4-chlorophenyl)-8-methylimidazo[1,2-a]pyridine]	> 2000	737	10.83% and 20.0586% and 13.47%	42.02% and 27.53% and 43.78%	45.53% and 45.97% and 50.81%	56.52% and 54.76% and 59.15%	63.98% and 61.79%	722 ± 48
Cc1cccn2cc(-c3ccc(Br)cc3)nc12 [Compound 2o, 2-(4-bromophenyl)-8-methylimidazo[1,2-a]pyridine]	> 2000							> 2000
